Reference: ChEMBL document CHEMBL1201862, “PubChem BioAssay data set” (2004)
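Growth conditions: 96-well plates. Treatment: test compound, 48 hours, 5 concentrations. Analysis: linear interpolation between bracketing concentrations; unreached endpoints set to highest concentration. GI50 marks 50% less growth.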 Calls of active or inactive are those of the source. Cut-off read from the data, not from the text of the source: active = GI50 up to about 1.1 µM and inactive = higher.

What was measured:
Experiment in all cases: NCI anticancer screen, dose series, 48 h
[1] = test system: SK-OV-3
[2] = test system: CCRF-CEM
[3] = test system: HOP-92
[4] = test system: U-251
[5] = test system: SN12C
[6] = test system: RXF 393
[7] = test system: SK-MEL-28
[8] = test system: SNB-75
[9] = test system: RPMI-8226
[10] = test system: SW-620
[11] = test system: HT-29
[12] = test system: SNB-19
[13] = test system: SNB-78
[14] = test system: A498
[15] = test system: KM-20L2
[16] = test system: EKVX
[17] = test system: SK-MEL-2
[18] = test system: SK-MEL-5
[19] = test system: HL-60
[20] = test system: M19-MEL

Row | SMILES | GI50 [1] | GI50 [2] | GI50 [3] | GI50 [4] | GI50 [5] | GI50 [6] | GI50 [7] | GI50 [8] | GI50 [9] | GI50 [10] | GI50 [11] | GI50 [12] | GI50 [13] | GI50 [14] | GI50 [15] | GI50 [16] | GI50 [17] | GI50 [18] | GI50 [19] | GI50 [20]
1 | O=C(Nc1ccc(F)cc1)C(=O)C(C(=O)c1ccccc1F)C1OC(=O)c2ccccc21 (stereo unspecified) | 66.5 µM (inactive) | 17.6 µM (inactive) | > 100 µM (inactive) | 24 µM (inactive) | 51.2 µM (inactive) | > 100 µM (inactive) | 87.3 µM (inactive) | 43.7 µM (inactive) | 23.4 µM (inactive) | 58.6 µM (inactive) | 52.6 µM (inactive) | 39.4 µM (inactive) | 44.6 µM (inactive) | > 100 µM (inactive) | 86.3 µM (inactive) | 68.4 µM (inactive) | 54.1 µM (inactive) | > 100 µM (inactive) | 29.8 µM (inactive) | –
2 | CCOCc1cc(=O)c2c(O)cc3c(c2o1)CCC(C)(C)O3 | > 100 µM (inactive) | > 100 µM (inactive) | 4.86 µM (inactive) | > 100 µM (inactive) | > 100 µM (inactive) | – | > 100 µM (inactive) | > 100 µM (inactive) | > 100 µM (inactive) | > 100 µM (inactive) | > 100 µM (inactive) | > 100 µM (inactive) | > 100 µM (inactive) | > 100 µM (inactive) | > 100 µM (inactive) | > 100 µM (inactive) | > 100 µM (inactive) | > 100 µM (inactive) | > 100 µM (inactive) | > 100 µM (inactive)
3 | COc1cc(S(=O)(=O)Nc2ccc(-c3csc(N4C(=O)C(C)SC4c4cccc(Oc5ccccc5)c4)n3)cc2)ccc1Cl (stereo unspecified) | 52.6 µM (inactive) | 64.7 µM (inactive) | 32.7 µM (inactive) | – | 70.1 µM (inactive) | 17.3 µM (inactive) | 55.8 µM (inactive) | 52.1 µM (inactive) | 42.1 µM (inactive) | 59 µM (inactive) | 35.4 µM (inactive) | 86.9 µM (inactive) | – | 27.4 µM (inactive) | – | 53.2 µM (inactive) | 86.9 µM (inactive) | 27.5 µM (inactive) | 27.2 µM (inactive) | –
4 | O=[S@@]1Nc2ccc(Br)cc2S1 | 22.5 µM (inactive) | 1.64 µM (inactive) | > 100 µM (inactive) | 5.18 µM (inactive) | 37.7 µM (inactive) | – | 4.53 µM (inactive) | > 100 µM (inactive) | > 100 µM (inactive) | 0.74 µM (active) | 2.13 µM (inactive) | 2.77 µM (inactive) | > 100 µM (inactive) | – | 0.294 µM (active) | 41.6 µM (inactive) | 4.67 µM (inactive) | 12.6 µM (inactive) | 2.22 µM (inactive) | 3.98 µM (inactive)
5 | CCN1CCCCC(=N\O)/C(=N/O)CCCC1 | > 100 µM (inactive) | > 100 µM (inactive) | > 100 µM (inactive) | > 100 µM (inactive) | > 100 µM (inactive) | > 100 µM (inactive) | > 100 µM (inactive) | > 100 µM (inactive) | > 100 µM (inactive) | > 100 µM (inactive) | > 100 µM (inactive) | > 100 µM (inactive) | – | > 100 µM (inactive) | – | 26.1 µM (inactive) | > 100 µM (inactive) | > 100 µM (inactive) | > 100 µM (inactive) | –
6 | CCOC(=O)c1cccc(NC(=O)CBr)c1 | 1.85 µM (inactive) | 0.0618 µM (active) | 1.93 µM (inactive) | 0.581 µM (active) | 0.458 µM (active) | 1.72 µM (inactive) | 2.62 µM (inactive) | 1.74 µM (inactive) | 1.07 µM (active) | 0.361 µM (active) | 1.69 µM (inactive) | 4.4 µM (inactive) | – | 3.43 µM (inactive) | – | 1.62 µM (inactive) | 1.56 µM (inactive) | 1.41 µM (inactive) | 1.74 µM (inactive) | –
7 | CCOC(=O)C(Cc1c(-c2[nH]c3ccccc3c2CC(NC(=O)CNC(C)=O)C(=O)OCC)[nH]c2ccccc12)NC(=O)CNC(C)=O (stereo unspecified) | > 100 µM (inactive) | > 100 µM (inactive) | 26.3 µM (inactive) | > 100 µM (inactive) | 56 µM (inactive) | – | 45.4 µM (inactive) | 22.1 µM (inactive) | > 100 µM (inactive) | > 100 µM (inactive) | > 100 µM (inactive) | > 100 µM (inactive) | – | 65 µM (inactive) | – | > 100 µM (inactive) | 18.6 µM (inactive) | 29.9 µM (inactive) | – | –
8 | Clc1ccc(N/N=C(\c2ccccc2)c2ccccn2)nc1 | 0.282 µM (active) | < 0.01 µM (active) | 0.101 µM (active) | 0.031 µM (active) | < 0.01 µM (active) | 2.2 µM (inactive) | 2.67 µM (inactive) | 0.316 µM (active) | 0.147 µM (active) | < 0.01 µM (active) | < 0.01 µM (active) | 1.17 µM (inactive) | – | 49.8 µM (inactive) | – | < 0.01 µM (active) | 3.85 µM (inactive) | 0.0578 µM (active) | < 0.01 µM (active) | –
9 | CC(=O)N(C(=O)CC(=O)N1N=C(C)C(/N=N/c2cccc([N+](=O)[O-])c2)C1=O)c1ccc(Cl)cc1 (stereo unspecified) | > 10 µM (inactive) | > 10 µM (inactive) | > 10 µM (inactive) | > 10 µM (inactive) | > 10 µM (inactive) | – | > 10 µM (inactive) | > 10 µM (inactive) | > 10 µM (inactive) | > 10 µM (inactive) | > 10 µM (inactive) | > 10 µM (inactive) | – | – | – | – | – | > 10 µM (inactive) | > 10 µM (inactive) | –
10 | COc1cc(/C=C(\C)[N+](=O)[O-])cc(OC)c1 | > 100 µM (inactive) | 2.4 µM (inactive) | 13.5 µM (inactive) | 17.7 µM (inactive) | 17.1 µM (inactive) | 7.48 µM (inactive) | 18.4 µM (inactive) | 16.7 µM (inactive) | 3.12 µM (inactive) | 4.49 µM (inactive) | 20 µM (inactive) | > 40.9 µM (inactive) | – | 8.05 µM (inactive) | – | 19.2 µM (inactive) | 17.2 µM (inactive) | 16 µM (inactive) | 2.04 µM (inactive) | –
11 | C[C@H](C(=O)O)C(=O)NC(=O)N(Cc1ccccc1)N=O | > 100 µM (inactive) | 67.1 µM (inactive) | – | > 100 µM (inactive) | > 100 µM (inactive) | – | > 100 µM (inactive) | 98.4 µM (inactive) | > 100 µM (inactive) | > 100 µM (inactive) | > 100 µM (inactive) | > 100 µM (inactive) | > 100 µM (inactive) | > 100 µM (inactive) | > 100 µM (inactive) | > 100 µM (inactive) | > 100 µM (inactive) | > 100 µM (inactive) | – | > 100 µM (inactive)
12 | CN(C(=O)C12C3C4C1C1C2C3C41C(=O)C(C)(C)C)C(C)(C)C (stereo unspecified) | > 100 µM (inactive) | > 100 µM (inactive) | – | > 100 µM (inactive) | > 100 µM (inactive) | – | > 100 µM (inactive) | 76 µM (inactive) | > 100 µM (inactive) | > 100 µM (inactive) | > 100 µM (inactive) | > 100 µM (inactive) | > 100 µM (inactive) | > 100 µM (inactive) | > 100 µM (inactive) | > 100 µM (inactive) | > 100 µM (inactive) | > 100 µM (inactive) | 63.5 µM (inactive) | > 100 µM (inactive)
13 | O=S(O)c1cc(Cl)cc(Cl)c1O | > 100 µM (inactive) | > 100 µM (inactive) | – | > 100 µM (inactive) | > 100 µM (inactive) | > 100 µM (inactive) | > 100 µM (inactive) | 75.9 µM (inactive) | – | – | > 100 µM (inactive) | > 100 µM (inactive) | > 100 µM (inactive) | > 100 µM (inactive) | – | > 100 µM (inactive) | > 100 µM (inactive) | – | > 100 µM (inactive) | > 100 µM (inactive)
14 | c1ccc(Nc2nnc(CCCCCCCCc3nnc(Nc4ccccc4)o3)o2)cc1 | > 100 µM (inactive) | > 100 µM (inactive) | – | > 100 µM (inactive) | > 100 µM (inactive) | > 100 µM (inactive) | > 100 µM (inactive) | > 100 µM (inactive) | – | > 100 µM (inactive) | > 100 µM (inactive) | > 100 µM (inactive) | – | > 100 µM (inactive) | – | > 100 µM (inactive) | > 100 µM (inactive) | > 100 µM (inactive) | > 100 µM (inactive) | –
15 | NC(CCOCCP(=O)(O)CCOCCC(N)C(=O)O)C(=O)O (stereo unspecified) | > 100 µM (inactive) | > 100 µM (inactive) | > 100 µM (inactive) | > 100 µM (inactive) | > 100 µM (inactive) | > 100 µM (inactive) | > 100 µM (inactive) | > 100 µM (inactive) | > 100 µM (inactive) | > 100 µM (inactive) | > 100 µM (inactive) | > 100 µM (inactive) | – | – | – | > 100 µM (inactive) | > 100 µM (inactive) | > 100 µM (inactive) | > 100 µM (inactive) | –
16 | O=S(O)CCCCSSCCCCS(=O)(=O)S | > 100 µM (inactive) | 13.8 µM (inactive) | – | > 100 µM (inactive) | 71 µM (inactive) | 43.3 µM (inactive) | 27 µM (inactive) | 10.9 µM (inactive) | – | 37.7 µM (inactive) | 38.6 µM (inactive) | > 100 µM (inactive) | 35.1 µM (inactive) | > 100 µM (inactive) | > 100 µM (inactive) | 19.4 µM (inactive) | 35.7 µM (inactive) | 14.2 µM (inactive) | – | 12.1 µM (inactive)
